In patent US12350341B2, “Methods for the treatment of cancer and benign lesions by ablation” (Duke University, priority 2017, dated 2025):
Values joined by “and” are separate entries in the source; they are usually repeats but may differ in a detail not shown here. Equal values may be shown once. Read-outs that look alike come from different tables or passages of the source.

Experiments:
[1] = test system: HeLa human cervical carcinoma cells; test: In vitro viability study, trypan blue exclusion assay; assay type: cell-based; conditions: 0.5 mL solution added to 0.5 mL media, 15 seconds at room temperature, PBS control 86%
Procedure: Low passage HeLa human cervical carcinoma cells (ATCC) were maintained with Eagles minimum essential medium (MEM, Gibeo, Carlsbad, California) supplemented with 10% (vol.) fetal bovine serum, 1% (vol.) penicillin and 1% (vol.) streptomycin. Cells were passaged twice per week and maintained at 37° C. and 5% CO2. Cells were cultured in two 12-well plates and grown to 80% confluence. Immediately before the experiment, cell media was removed and 0.5 mL of fresh media was added to each well. Next, each well was treated with 0.5 mL of either ethanol (200 proof, Koptec, King of Prussia, PA), 3% (w/w) ethyl cellulose (USP, Sigma Aldrich, Rockville, MD) in ethanol or PBS (control), added directly to the media. […] Tapani, E., et al., Toxicity of ethanol in low concentrations. Experimental evaluation in cell culture. Acta Radiol, 1996. 37(6): p. 923-6. The media containing the treatment solution was then removed, each well was rinsed twice with 1 mL of PBS, and given 1 mL of fresh MEM media. After all wells had been treated, each well was rinsed one time with 1 mL of PBS, given 250 μL of […] trypsin (Gibed, Carlsbad, CA), and returned to the incubator for 5 minutes. […] Viability was then assessed with a trypan blue exclusion assay (Gibco, Carlsbad, CA and a Countess Automated Cell Counter, Invitrogen, Carlsbad, CA). […]

[2] = test system: squamous cell carcinoma tumors in the hamster cheek pouch; conditions: for Tumors with complete response (no visible lesion): day 7, manual high-volume injection, 13 tumors ablated; for Tumor volume as % of the initial volume (normalized tumor volume): day 7, manual intratumoral injection, average 284±350 μL pure ethanol, 13 tumors
Excerpt: The animal study protocol was approved by the Duke University Institutional Animal Care and Use Committee. For the manual pure ethanol ablation study, a total of 6 hamsters were used. For the rate- and viscosity-controlled study, a total of 8 hamsters were used. Tumors were induced through the topical application of dimethylbenz[a]anthracene (Sigma-Aldrich). Burns, R. A., et al., Tumor-localizing and photosensitizing properties of hematoporphyrin derivative in hamster buccal pouch carcinoma. Oral Surg Oral Med Oral Pathol, 1986. 61(4): p. 368-72. Three times a week the buccal mucosa of each cheek pouch was inverted then stretched from the mouth. An area of approximately […] was painted with a cotton swab dipped in the DMBA-mineral oil solution. The cheek pouches were painted until tumors of at least 100 uL in volume developed, at approximately 22 weeks.
Tumor volumes were measured before the injection and daily for 7 days after. […] They were only performed if the tumor volume had increased for two consecutive days after the 7 day observation period. Volumes were calculated by measuring the longest axis and the orthogonal axis and using the following formula: V=4/3π*(Rlong^2)*(Rorth). Complete response is defined as the total absence of any evidence of a tumor or raised lesion by visual examination.
For cell viability analysis, a one-Way ANOVA was used followed by a Tukey-HSD. For both phantom distribution volume and in vivo normalized tumor volume analysis, a non-parametric ANOVA was used (Kruskal-Wallis) followed by a non-parametric multiple comparisons test (Dunn's test). In comparing phantom distribution volume and in vivo normalized tumor volume, the Pearson's product moment correlation coefficient was calculated. All statistical analysis was performed in R. Normalized tumor volume was calculated by dividing by the volume at a given time point by the initial volume before treatment.

[3] = test system: squamous cell carcinoma tumors in the hamster cheek pouch; test: Injection rate- and viscosity-controlled ablation study, hamster cheek pouch model; assay type: in vivo; conditions: day 7, 50 μL injected, mean over injection rates 0.1, 1.0, 10 and 100 mL/hr
Procedure: Three percent ethyl cellulose (Sigma Aldrich)-ethanol solutions (weight by weight) were prepared by stirring at room temperature. Three percent was chosen as higher viscosities required a lockable needle to stay attached to the syringe at high injection rates. Two drops of blue food dye were added for every 1 mL of ethanol and ethyl cellulose-ethanol solutions to enhance contrast. 50 μL of either solution was injected at a rate of 0.1, 0.5, 1.0, 5.0, 10 or 35 mL/hr as controlled by a syringe pump (NE-300 Just Infusion Syringe Pump). Manual injections were approximately 100 mL/hr. A 1 mL syringe and 27 G needles connected with microtubing (Tygon Microtube Tubing, 0.25 mmID) were used for injections. On the outflow-end of the catheter tube a 27 G needle was snapped off the base to fit into the tubing.
Oral Surg Oral Med Oral Pathol, 1986. 61(4): p. 368-72. […] The cheek pouches were painted until tumors of at least 100 uL in volume developed, at approximately 22 weeks.
The average tumor volume was 195±140 μL and 50 μL of solution (either ethanol or 3% ethyl cellulose-ethanol) was injected. Solutions were injected with the syringe pump at 0.1, 1.0 or 10 mL/hr or injected manually. Tumor volume was measured before injections and at 1, 2 4 and 7 days following the injection. […] 36 total ablations were performed on 8 animals. […]

CCO [ethanol]
Viability (live cell count/total cell count) [1]: 19%
Tumors with complete response (no visible lesion) [2]: 4 of 13
Tumors with complete response (no visible lesion) ([2]; listed as pure ethanol): 4 and 4 out of 13 and 4/13
Tumor volume as % of the initial volume (normalized tumor volume) [2]: 30%
Tumor volume as % of the initial volume (normalized tumor volume) ([2]; listed as pure ethanol): 30±33%
Normalized tumor volume [3]: 79±79%
